According to US9029404B2, “Apoptosis-inducing agents for the treatment of cancer and immune and autoimmune diseases” (AbbVie Inc., priority 2008, dated 2015):

The compounds below were run against GST-Bcl-2 (Homo sapiens, UniProt P10415) (assay: Time Resolved-Fluorescence Resonance Energy Transfer (TR-FRET) Bcl-2 binding assay). Conditions: competition with F-Bak peptide probe (100 nM); GST-Bcl-2 1 nM; Tb-anti-GST 1 nM; 3 hours at room temperature; Wang's equation.
Method: Determination of the utility of compounds having Formula (I) as binders to and inhibitors of anti-apoptotic Bcl-2 proteins was performed using the Time Resolved-Fluorescence Resonance Energy Transfer (TR-FRET) Assay. Tb-anti-GST antibody was purchased from Invitrogen (Catalog No. PV4216).
(§1) Representative compounds were serially diluted in dimethyl sulfoxide (DMSO) starting at 50 μM (2× starting concentration; 10% DMSO) and 10 μL were transferred into a 384-well plate. The samples are then mixed on a shaker for 1 minute and incubated for an additional 3 hours at room temperature. For each assay, the probe/antibody and protein/probe/antibody were included on each assay plate as negative and positive controls, respectively. Fluorescence was measured on the Envision (Perkin Elmer) using a 340/35 nm excitation filter and 520/525 (F-Bak peptide) and 495/510 nm (Tb-labeled anti-Histidine antibody) emission filters.
as §1, with “The” for “Representative compounds were serially diluted in dimethyl sulfoxide (DMSO) starting at 50 μM (2× starting concentration; 10% DMSO) and 10 μL were transferred into a 384-well plate. The”, “were” for “are”
The inhibition constant (Ki) is the dissociation constant of an enzyme-inhibitor complex or a protein/small molecule complex, wherein the small molecule is inhibiting binding of one protein to another protein. So a large Ki value indicates a low binding affinity and a small Ki value indicates a high binding affinity.

Sequence of GST-Bcl-2 (P10415 whole entry): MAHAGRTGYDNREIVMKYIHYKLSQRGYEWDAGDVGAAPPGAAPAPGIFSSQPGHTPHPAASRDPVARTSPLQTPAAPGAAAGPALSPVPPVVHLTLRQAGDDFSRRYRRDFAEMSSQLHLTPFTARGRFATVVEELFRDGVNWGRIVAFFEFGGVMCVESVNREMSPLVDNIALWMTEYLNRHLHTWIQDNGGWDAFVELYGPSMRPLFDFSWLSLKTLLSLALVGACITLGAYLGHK

| SMILES | Ki [nM] |
| --- | --- |
| Cn1c(=O)[nH]c2cccc(Oc3cc(N4CCN(CC5=C(c6ccc(Cl)cc6)CC(C)(C)CC5)CC4)ccc3C(=O)NS(=O)(=O)c3cnc(OCC4CCOCC4)c(Cl)c3)c21 [Example 425, 4-(4-{[2-(4-chlorophenyl)-4,4-dimethylcyclohex-1-en-1-yl]methyl}piperazin-1-yl)-N-{[5-chloro-6-(tetrahydro-2H-pyran-4-ylmethoxy)pyridin-3-yl]sulfonyl}-2-[(3-methyl-2-oxo-2,3-dihydro-1H-benzimidazol-4-yl)oxy]benzamide] | 0.013 |
| Cn1c(=O)[nH]c2cccc(Oc3cc(N4CCN(CC5=C(c6ccc(Cl)cc6)CC(C)(C)CC5)CC4)ccc3C(=O)NS(=O)(=O)c3ccc(OCC4(F)CCOCC4)c([N+](=O)[O-])c3)c21 [Example 426, 4-(4-{[2-(4-chlorophenyl)-4,4-dimethylcyclohex-1-en-1-yl]methyl}piperazin-1-yl)-N-({4-[(4-fluorotetrahydro-2H-pyran-4-yl)methoxy]-3-nitrophenyl}sulfonyl)-2-[(3-methyl-2-oxo-2,3-dihydro-1H-benzimidazol-4-yl)oxy]benzamide] | < 0.01 |
| CO[C@H]1CC[C@H](CNc2ccc(S(=O)(=O)NC(=O)c3ccc(N4CCN(CC5=C(c6ccc(Cl)cc6)CC(C)(C)CC5)CC4)cc3Oc3cccc4[nH]c(=O)n(C)c34)cc2[N+](=O)[O-])CC1 [Example 427, 4-(4-{[2-(4-chlorophenyl)-4,4-dimethylcyclohex-1-en-1-yl]methyl}piperazin-1-yl)-N-[(4-{[(trans-4-methoxycyclohexyl)methyl]amino}-3-nitrophenyl)sulfonyl]-2-[(3-methyl-2-oxo-2,3-dihydro-1H-benzimidazol-4-yl)oxy]benzamide] | < 0.01 |
| CC1(C)CCC(CN2CCN(c3ccc(C(=O)NS(=O)(=O)c4ccc(NCC5(F)CCOCC5)c([N+](=O)[O-])c4)c(Oc4cccc5[nH]nc(N)c45)c3)CC2)=C(c2ccc(Cl)cc2)C1 [Example 428, 2-[(3-amino-1H-indazol-4-yl)oxy]-4-(4-{[2-(4-chlorophenyl)-4,4-dimethylcyclohex-1-en-1-yl]methyl}piperazin-1-yl)-N-[(4-{[(4-fluorotetrahydro-2H-pyran-4-yl)methyl]amino}-3-nitrophenyl)sulfonyl]benzamide] | < 0.01 |
| CC1(C)CCC(CN2CCN(c3ccc(C(=O)NS(=O)(=O)c4ccc(OCC5(F)CCOCC5)c([N+](=O)[O-])c4)c(Oc4cccc5[nH]nc(N)c45)c3)CC2)=C(c2ccc(Cl)cc2)C1 [Example 429, 2-[(3-amino-1H-indazol-4-yl)oxy]-4-(4-{[2-(4-chlorophenyl)-4,4-dimethylcyclohex-1-en-1-yl]methyl}piperazin-1-yl)-N-({4-[(4-fluorotetrahydro-2H-pyran-4-yl)methoxy]-3-nitrophenyl}sulfonyl)benzamide] | < 0.01 |
| CC1(C)CCC(CN2CCN(c3ccc(C(=O)NS(=O)(=O)c4cnc(OCC5(F)CCOCC5)c(Cl)c4)c(Oc4cccc5[nH]nc(N)c45)c3)CC2)=C(c2ccc(Cl)cc2)C1 [Example 430, 2-[(3-amino-1H-indazol-4-yl)oxy]-N-({5-chloro-6-[(4-fluorotetrahydro-2H-pyran-4-yl)methoxy]pyridin-3-yl}sulfonyl)-4-(4-{[2-(4-chlorophenyl)-4,4-dimethylcyclohex-1-en-1-yl]methyl}piperazin-1-yl)benzamide] | < 0.01 |
| CC1(C)CCC(CN2CCN(c3ccc(C(=O)NS(=O)(=O)c4ccc(NCC5CCOCC5)c([N+](=O)[O-])c4)c(Oc4cccc5[nH]nc(N)c45)c3)CC2)=C(c2ccc(Cl)cc2)C1 [Example 431, 2-[(3-amino-1H-indazol-4-yl)oxy]-4-(4-{[2-(4-chlorophenyl)-4,4-dimethylcyclohex-1-en-1-yl]methyl}piperazin-1-yl)-N-({3-nitro-4-[(tetrahydro-2H-pyran-4-ylmethyl)amino]phenyl}sulfonyl)benzamide] | < 0.01 |
| CC1(C)CCC(CN2CCN(c3ccc(C(=O)NS(=O)(=O)c4ccc(OCC5(F)CCN(C6COC6)CC5)c([N+](=O)[O-])c4)c(Oc4cnc(N)c(Cl)c4)c3)CC2)=C(c2ccc(Cl)cc2)C1 [Example 432, 2-[(6-amino-5-chloropyridin-3-yl)oxy]-4-(4-{[2-(4-chlorophenyl)-4,4-dimethylcyclohex-1-en-1-yl]methyl}piperazin-1-yl)-N-[(4-{[4-fluoro-1-(oxetan-3-yl)piperidin-4-yl]methoxy}-3-nitrophenyl)sulfonyl]benzamide] | < 0.01 |
| CC1(C)CCC(CN2CCN(c3ccc(C(=O)NS(=O)(=O)c4ccc(OCC5(F)CCOCC5)c([N+](=O)[O-])c4)c(Oc4cc(F)cc5[nH]ncc45)c3)CC2)=C(c2ccc(Cl)cc2)C1 [Example 433, 4-(4-{[2-(4-chlorophenyl)-4,4-dimethylcyclohex-1-en-1-yl]methyl}piperazin-1-yl)-2-[(6-fluoro-1H-indazol-4-yl)oxy]-N-({4-[(4-fluorotetrahydro-2H-pyran-4-yl)methoxy]-3-nitrophenyl}sulfonyl)benzamide] | < 0.01 |
| CC1(C)CCC(CN2CCN(c3ccc(C(=O)NS(=O)(=O)c4ccc(NCC5CCC(C)(O)CC5)c([N+](=O)[O-])c4)c(Oc4cnc(N)c(Cl)c4)c3)CC2)=C(c2ccc(Cl)cc2)C1 (stereo not drawn) [Example 434, 2-[(6-amino-5-chloropyridin-3-yl)oxy]-4-(4-{[2-(4-chlorophenyl)-4,4-dimethylcyclohex-1-en-1-yl]methyl}piperazin-1-yl)-N-[(4-{[(trans-4-hydroxy-4-methylcyclohexyl)methyl]amino}-3-nitrophenyl)sulfonyl]benzamide] | < 0.01 |
| CO[C@H]1CC[C@H](CNc2ccc(S(=O)(=O)NC(=O)c3ccc(N4CCN(CC5=C(c6ccc(Cl)cc6)CC(C)(C)CC5)CC4)cc3Oc3cccc4[nH]nc(N)c34)cc2[N+](=O)[O-])CC1 [Example 435, 2-[(3-amino-1H-indazol-4-yl)oxy]-4-(4-{[2-(4-chlorophenyl)-4,4-dimethylcyclohex-1-en-1-yl]methyl}piperazin-1-yl)-N-[(4-{[(trans-4-methoxycyclohexyl)methyl]amino}-3-nitrophenyl)sulfonyl]benzamide] | 0.01 |
| CC1(C)CCC(CN2CCN(c3ccc(C(=O)NS(=O)(=O)c4ccc(OC[C@H]5CC[C@@](C)(O)CC5)c([N+](=O)[O-])c4)c(Oc4cnc(N)c(Cl)c4)c3)CC2)=C(c2ccc(Cl)cc2)C1 [Example 436, 2-[(6-amino-5-chloropyridin-3-yl)oxy]-4-(4-{[2-(4-chlorophenyl)-4,4-dimethylcyclohex-1-en-1-yl]methyl}piperazin-1-yl)-N-({4-[(cis-4-hydroxy-4-methylcyclohexyl)methoxy]-3-nitrophenyl}sulfonyl)benzamide] | < 0.01 |
| CC1(C)CCC(CN2CCN(c3ccc(C(=O)NS(=O)(=O)c4ccc(NCC5CCC(C)(O)CC5)c([N+](=O)[O-])c4)c(Oc4cnc(N)c(Cl)c4)c3)CC2)=C(c2ccc(Cl)cc2)C1 (stereo not drawn) [Example 437, 2-[(6-amino-5-chloropyridin-3-yl)oxy]-4-(4-{[2-(4-chlorophenyl)-4,4-dimethylcyclohex-1-en-1-yl]methyl}piperazin-1-yl)-N-[(4-{[(cis-4-hydroxy-4-methylcyclohexyl)methyl]amino}-3-nitrophenyl)sulfonyl]benzamide] | < 0.01 |
| Cn1c(=O)[nH]c2cccc(Oc3cc(N4CCN(CC5=C(c6ccc(Cl)cc6)CC(C)(C)CC5)CC4)ccc3C(=O)NS(=O)(=O)c3ccc(OCC4CCOCC4)c(Cl)c3)c21 [Example 438, 4-(4-{[2-(4-chlorophenyl)-4,4-dimethylcyclohex-1-en-1-yl]methyl}piperazin-1-yl)-N-{[3-chloro-4-(tetrahydro-2H-pyran-4-ylmethoxy)phenyl]sulfonyl}-2-[(3-methyl-2-oxo-2,3-dihydro-1H-benzimidazol-4-yl)oxy]benzamide] | 0.031 |
| Cn1c(=O)[nH]c2cccc(Oc3cc(N4CCN(CC5=C(c6ccc(Cl)cc6)CC(C)(C)CC5)CC4)ccc3C(=O)NS(=O)(=O)c3ccc(NCC4CN(C5CC5)CCO4)c([N+](=O)[O-])c3)c21 (stereo not shown) [Example 439, 4-(4-{[2-(4-chlorophenyl)-4,4-dimethylcyclohex-1-en-1-yl]methyl}piperazin-1-yl)-N-[(4-{[(4-cyclopropylmorpholin-2-yl)methyl]amino}-3-nitrophenyl)sulfonyl]-2-[(3-methyl-2-oxo-2,3-dihydro-1H-benzimidazol-4-yl)oxy]benzamide] | < 0.01 |
| CC1(C)CCC(CN2CCN(c3ccc(C(=O)NS(=O)(=O)c4ccc(OCC5CCC6(CC5)COC6)c([N+](=O)[O-])c4)c(Oc4cnc(N)c(Cl)c4)c3)CC2)=C(c2ccc(Cl)cc2)C1 [Example 440, 2-[(6-amino-5-chloropyridin-3-yl)oxy]-4-(4-{[2-(4-chlorophenyl)-4,4-dimethylcyclohex-1-en-1-yl]methyl}piperazin-1-yl)-N-{[3-nitro-4-(2-oxaspiro[3.5]non-7-ylmethoxy)phenyl]sulfonyl}benzamide] | 0.022 |
